The text below walks through data of patent US10377770B2 (Novartis AG, priority 2015, dated 2019).

pIC50: −log10 of the molar value.

In this experiment the target is C-Raf FL (full length CRAF with Y340E and Y341E activating mutations, co-expressed with h14-3-3 zeta) (Homo sapiens (Human), UniProt P04049, Y340E/Y341E). Put plainly: In vitro Raf activity determination, AlphaScreen p-MEK readout, c-Raf (C-Raf FL). As to conditions: c-Raf approximately 4 nM, ATP 1 μM, pre-incubation 60 minutes, reaction 1 hour. Format: biochemical. In outline:
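Phosphorylation of kinase-dead biotinylated MEK1 (~10 nM) by C-Raf FL (~4 nM) read by AlphaScreen luminescence with anti-phospho-MEK1/2 after EDTA stop. ATP was 1 μM, with a 1 h reaction at room temperature. Compounds were pre-incubated with enzyme and substrate for 60 min in Tris/MgCl2 buffer, pH 7.5.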
(Bead proximity is the source of the signal in Alpha formats.)

A word on the pIC50: it is the IC50 on a negative log10 scale, so that one unit is a factor of ten.

Sequence of C-Raf FL (full length CRAF with Y340E and Y341E activating mutations, co-expressed with h14-3-3 zeta) (P04049 whole entry Y340E/Y341E): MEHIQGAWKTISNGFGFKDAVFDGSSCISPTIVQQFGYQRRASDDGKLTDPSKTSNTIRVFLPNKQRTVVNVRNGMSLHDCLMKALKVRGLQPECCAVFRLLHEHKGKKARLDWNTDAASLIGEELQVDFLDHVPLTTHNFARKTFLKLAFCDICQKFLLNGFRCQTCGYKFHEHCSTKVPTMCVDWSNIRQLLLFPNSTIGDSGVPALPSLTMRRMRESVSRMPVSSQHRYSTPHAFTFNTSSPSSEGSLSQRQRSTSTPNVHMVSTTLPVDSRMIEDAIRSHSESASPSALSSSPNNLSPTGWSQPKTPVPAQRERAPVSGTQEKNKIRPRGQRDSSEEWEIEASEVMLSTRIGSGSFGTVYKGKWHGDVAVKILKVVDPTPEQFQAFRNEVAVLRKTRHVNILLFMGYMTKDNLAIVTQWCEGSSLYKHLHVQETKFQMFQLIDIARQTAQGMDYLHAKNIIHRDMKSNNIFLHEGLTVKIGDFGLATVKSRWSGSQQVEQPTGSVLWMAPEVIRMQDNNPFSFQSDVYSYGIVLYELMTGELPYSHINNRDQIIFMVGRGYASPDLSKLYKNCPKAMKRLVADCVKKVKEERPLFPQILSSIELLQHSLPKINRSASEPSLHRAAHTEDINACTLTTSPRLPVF
Sequence of C-Raf FL (full length CRAF with Y340E and Y341E activating mutations, co-expressed with h14-3-3 zeta) (P63104 whole entry partner): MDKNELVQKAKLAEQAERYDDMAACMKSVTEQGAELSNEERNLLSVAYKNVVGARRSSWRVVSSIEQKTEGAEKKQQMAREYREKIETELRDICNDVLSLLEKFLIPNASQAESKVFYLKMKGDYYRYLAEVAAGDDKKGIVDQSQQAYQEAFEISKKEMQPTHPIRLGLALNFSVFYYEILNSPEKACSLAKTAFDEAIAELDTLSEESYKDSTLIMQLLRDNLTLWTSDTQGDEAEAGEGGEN

With `CC[C@@H]1Oc2nnc(-c3cc(NC(=O)c4ccnc(C(C)(F)F)c4)ccc3C)cc2N2CCOC[C@H]12` [Example 532, 2-(1,1-Difluoroethyl)-N-(3-((6S,6aR)-6-ethyl-6a,7,9,10-tetrahydro-6H-[1,4]oxazino[4,3-d]pyridazino[3,4-b][1,4]oxazin-2-yl)-4-methylphenyl)isonicotinamide], the pIC50 was 9.70.

Compound `Cc1ccc(NC(=O)c2ccnc(C(F)(F)F)c2)cc1-c1cnc2c(c1)N1CCOC[C@@H]1[C@@](C)(C#N)C2` [Example 378, N-(3-((4aS,5S)-5-cyano-5-methyl-1,2,4,4a,5,6-hexahydro-[1,4]oxazino[4,3-a][1,5]naphthyridin-9-yl)-4-methylphenyl)-2-(trifluoromethyl)isonicotinamide] showed a pIC50 of 9.70.

As for `Cc1ccc(NC(=O)c2cncc(C(F)(F)F)c2)cc1-c1cc2c(cc1F)C[C@](F)(CO)[C@H]1COCCN21` [Example 488, N-(3-((4aR,5R)-5,8-difluoro-5-(hydroxymethyl)-1,2,4,4a,5,6-hexahydro-[1,4]oxazino[4,3-a]quinolin-9-yl)-4-methylphenyl)-5-(trifluoromethyl) nicotinamide], the negative logarithm of the IC50 (pIC50) is 9.52.

`CCN1C[C@H]2CCOCCN2c2cc(-c3cc(NC(=O)c4cccc(C(F)(F)F)c4)cnc3C)cnc2C1=O` [Example 507, (R)-N-(5-(7-ethyl-8-oxo-1,2,4,5,5a,6,7,8-octahydropyrido[2′, 3′:6,7][1,4]diazepino [1,2-d][1,4]oxazepin-11-yl)-6-methylpyridin-3-yl)-3-(trifluorometh-yl)benzamide] showed a pIC50 of 7.57.

In the case of `CCN1C[C@H]2COCCN2c2cc(-c3cc(NC(=O)c4cccc(C(F)(F)F)c4)cnc3C)cnc2C1=O` [Example 497, (S)-N-(5-(6-ethyl-7-oxo-1,2,4a,5,6,7-hexahydro-4H-[1,4]oxazino[4,3-a]pyrido[2,3-f][1,4]diazepin-10-yl)-6-methylpyridin-3-yl)-3-(trifluoromethyl) benzamide], the pIC50 was 8.85.

In turn, `Cc1ccc(NC(=O)c2ccnc(C(F)(F)F)c2)cc1-c1cnc2c(c1)N1CCOC[C@H]1C[C@H]2C` [Example 522, N-(4-methyl-3-((4aR,6R)-6-methyl-1,2,4,4a,5,6-hexahydro-[1,4]oxazino[4,3-a][1,5]naph-thyridin-9-yl)phenyl)-2-(trifluoromethyl)iso-nicotinamide] gave a pIC50 of 10.00.

Compound `Cc1ccc(NC(=O)c2ccnc(C(C)(C)F)c2)cc1-c1cc(F)c2c(c1)N1CCOC[C@@H]1[C@](F)(CO)C2` [Example 438, N-(3-((4aR,5S)-5,7-difluoro-5-(hydroxymethyl)-1,2,4,4a,5,6-hexahydro-[1,4]oxazino[4,3-a]quinolin-9-yl)-4-methylphenyl)-2-(2-fluoropropan-2-yl)isonicotinamide] gave a negative logarithm of the IC50 (pIC50) of 9.10.

On to `Cc1ncc(NC(=O)c2cccc(C(F)(F)F)c2)cc1-c1cnc2c(c1)N1CCOC[C@@H]1[C@H](CO)C2` [Example 493, N-(5-((4aS,5R)-5-(hydroxymethyl)-1,2,4,4a,5,6-hexahydro-[1,4]oxazino[4,3-a][1,5]naphthyridin-9-yl)-6-methylpyridin-3-yl)-3-(trifluorometh-yl)benzamide], for which the pIC50 is 10.00.

The compound `CCN1C(=O)OC2COCCC2c2cc(-c3cc(NC(=O)c4cccc(C(F)(F)F)c4F)cnc3C)cnc21` [Example 300, N-(5-((4aS,11bR- cis)-7-ethyl-6-oxo-2,4,4a,6,7,11b-hexahydro-1H-pyrano[4,3-f]pyrido[2,3-d][1,3]oxazepin-10-yl)-6-methylpyridin-3-yl)-2-fluoro-3-(trifluoromethyl) benzamide] gave a pIC50 of 9.70.

`Cc1ccc(NC(=O)c2ccnc(C(F)(F)F)c2F)cc1-c1cnc2c(c1)N1CCOCC1C(C)(C)C2O` (stereo not drawn) [Example 337, 3-fluoro-N-(3-(6-hydroxy-5,5-dimethyl-1,2,4,4a,5,6-hexahydro-[1,4]oxazino[4,3-a][1,5]naphthyridin-9-yl)-4-methylphenyl)-2-(trifluoromethyl) isonicotinamide] showed a negative logarithm of the IC50 (pIC50) of 9.52.

On to `Cc1ccc(NC(=O)c2ccnc(C(C)(F)F)c2)cc1-c1cnc2c(c1)N1CCOC[C@H]1[C@@H](C(C)(C)O)C2` [Example 453, 2-(1,1-difluoroethyl)-N-(3-((4aR,5S)-5-(2-hydroxypropan-2-yl)-1,2,4,4a,5,6-hexahydro-[1,4]oxazino[4,3-a][1,5]naphthyridin-9-yl)-4-methylphenyl) isonicotinamide], for which the negative-log IC50 (pIC50) was 9.15.

In turn, `Cc1ccc(NC(=O)c2ccnc(C(F)(F)F)c2)cc1-c1cnc2c(c1)N1CCOCC1C(C)(C)C2O` (stereo not drawn) [Example 335, N-(3-(6-hydroxy-5,5-dimethyl-1,2,4,4a,5,6-hexahydro-[1.4]oxazino[4,3-a][1.5]naphthyridin-9-yl)-4-methylphenyl)-2-(trifluoromethyl) isonicotinamide] gave a pIC50 of 10.00.

Turning to `Cc1ncc(NC(=O)c2cccc(C(F)(F)F)c2)cc1-c1cc(F)c2c(c1)N1CCOC[C@@H]1[C@](F)(CO)C2` [Example 437, N-(5-((4aR,5S)-5,7-difluoro-5-(hydroxymethyl)-1,2,4,4a,5,6-hexahydro-[1,4]oxazino[4,3-a]quinolin-9-yl)-6-methylpyridin-3-yl)-3-(trifluoro-methyl)benzamide], the pIC50 is 9.22.

`Cc1ccc(NC(=O)c2ccnc(C(F)(F)F)c2)cc1-c1cc2c(nn1)OC(C)(C)C1COCCN21` (racemic) [Example 139, rac-N-(3-(6,6-dimethyl-6a,7,9,10-tetrahydro-6H-[1,4]oxazino[4,3-d]pyridazino[3,4-b][1,4]oxazin-2-yl)-4-methylphenyl)-2-(trifluoromethyl)isonicotinamide] gave a negative logarithm of the IC50 (pIC50) of 10.24.

Compound `Cc1ccc(NC(=O)c2ccnc(C(C)(F)F)c2)cc1-c1cnc2c(c1)N1CCOCC1C1(COC1)C2` (racemic) [Example 152, rac-2-(1,1-difluoroethyl)-N-(4-methyl-3-(2,4,4a,6-tetrahydro-1H-spiro[[1,4]oxazino[4,3-a][1,5]naphthyridine-5,3′-oxetan]-9-yl)phenyl)isonicotinamide] had a negative logarithm of the IC50 (pIC50) of 10.96.

In the case of `Cc1ccc(NC(=O)c2ccnc(C(F)(F)F)c2)cc1-c1cnc2c(c1)C1(C)CCOCCC1C(=O)N2CCO` (single isomer, unassigned) [Example 356, N-(3-((5a,11b-trans)-7-(2-hydroxyethyl)-11b-methyl-6-oxo-1,2,4,5,5a,6,7,11b-octahydrooxepino[4,5-c][1,8]naphthyridin-10-yl)-4-methylphenyl)-2-(trifluoromethyl)isonicotinamide], the pIC50 is 10.00.

On to `Cc1ccc(NC(=O)c2ccnc(C(C)(F)F)c2)cc1-c1cnc2c(c1)N1CCOCC1CC2O` (racemic) [Example 107, rac-cis-2-(1,1-Difluoroethyl)-N-(3-(6-hydroxy-1,2,4,4a,5,6-hexahydro-[1,4]oxazino[4,3-a][1,5]naphthyridin-n-9-yl)-4-methylphenyl)isonicotinamide], for which the pIC50 was 10.72.

`CCN1C(=O)CC2CCOCCN2c2cc(-c3cc(NC(=O)c4cccc(C(F)(F)F)c4)cnc3C)cnc21` (stereo not drawn) [Example 315, N-(5-(8-ethyl-7-oxo-1,2,4,5,5a,6,7,8-octahydropyrido[3′, 2′:2,3][1,4]diazepino [1,7-d][1,4]oxazepin-11-yl)-6-methylpyridin-3-yl)-3-(trifluoromethyl) benzamide]: the pIC50 is 8.77.
